Results on nine compounds are retold here after patent publication US12685726B2, “Sulfoximines as inhibitors of NaV1.8” (Gruenenthal GmbH, priority 2022, dated 2026).

Where only a bound is given, the exact number is not on record here.

The target in this assay is T1, human NaV 1.8 (Homo sapiens, UniProt Q9Y5Y9).
T1 construct: expressed in transfected cells; host or cells: HEK (recombinant cell line)
The experiment in a line: Automated whole-cell patch clamp (Qube384) voltage-clamp recordings of sodium currents in HEK-NaV1.8 cell line. The assay is classed as cell-based. Conditions: read-out: Potency category (human NaV 1.8 IC50). As to the method:
Electrophysiology: Voltage-Clamp Recordings
The following NaV1.8 recombinant cell line was used for recordings: HEK-NaV1.8 (NM_006514.1) with b3 (NM_018400.3).
Sodium currents were measured using the patch clamp technique in the whole-cell configuration using the Qube384 (Sophion A/S, Copenhagen, Denmark) automated voltage clamp platform. “Multi hole” plates were used for the cell line expressing NaV1.8 while “single hole” plates were used for the recombinant cell lines expressing the other subtypes. Appropriate filters (for minimum seal resistance and minimum current size) and series resistance compensation (for high quality sodium channel recordings) were applied. Data was collected at ambient room temperature or 19° C.
The recording extracellular solution contained (in mM): NaCl 145 mM, KCl 4 mM, CaCl2 2 mM, MgCl2 1 mM, HEPES 10 mM, Glucose 10 mM, pH 7.4 (NaOH). The intracellular recording solution contained (in mM): CsF 120 mM, CsCl 20 mM, NaCl 10 mM, EGTA 10 mM, HEPES 10 mM, pH 7.2 (CsOH). Currents were recorded at 25 kHz sampling frequency and filtered at 5 kHz. Series resistance compensation was applied at 65%.
Vehicle (VEH) is the control condition where cells are exposed to 0.3% DMSO without compound. All runs include VEH controls being exposed to the same voltage protocols to assess non-compound related phenomena such as run down and then used to isolate compound dependent effects on currents.
To check for state-dependent inhibition, the following voltage-sequence was applied every 20 seconds:
From a resting membrane potential of −120 mV, the first test pulse (P1; 20 ms to −10 mV) was applied to check for channels in the Resting State followed by a brief recovery (100 ms to −120 mV), then holding the membrane voltage to V1/2 (4 seconds at voltage to obtain half the channel at Rest and half Inactivated) with a subsequent second test pulse (P2; 20 ms to −10 mV) to check for channels in the Inactivated State, followed by another brief recovery (20 ms to −120 mV) and a final third test pulse (P3; 20 ms to −10 mV) to check for recovered channels.
To check for frequency-dependent inhibition, a 10 Hz protocol and a 20 Hz protocol were applied; namely,
From a resting membrane potential of −120 mV, 40-pulses (10 ms to −10 mV) was applied at 10 Hz (at 100 ms between pulses) and then at 20 Hz (at 50 ms between pulses).
Each parameter was recorded (P1, P2, P3, P40 from 10 Hz and P40 from 20 Hz) during a control period (lasting 5 minutes) when establishing the baseline and during compound period (lasting ~12 minutes) when test compound (or vehicle) was applied. For each parameter, the value at the end of the compound period was normalized to the vehicle baseline; as follows
To adjust for any variance in the Na^+ current signal during the compound period (owing to cumulative inactivation independent of compound or shifts in biophysics over time), a dedicated segment of the recording wells in each 384 plate were dedicated to having only vehicle exposure. These vehicle-only recordings were used to correct for any apparent “run-up” or “run-down” in the experiment.
The adjusted inhibition was calculated as follows: […]
Percent inhibition was determined and IC50 values were calculated using a 4 parameter logistic model within XLFit Software (IDBS, Boston MA): F
[formula] where A and B are the maximal and minimum inhibition respectively, C is the IC50 concentration and D is the (Hill) slope.

T1 sequence (Q9Y5Y9 whole entry): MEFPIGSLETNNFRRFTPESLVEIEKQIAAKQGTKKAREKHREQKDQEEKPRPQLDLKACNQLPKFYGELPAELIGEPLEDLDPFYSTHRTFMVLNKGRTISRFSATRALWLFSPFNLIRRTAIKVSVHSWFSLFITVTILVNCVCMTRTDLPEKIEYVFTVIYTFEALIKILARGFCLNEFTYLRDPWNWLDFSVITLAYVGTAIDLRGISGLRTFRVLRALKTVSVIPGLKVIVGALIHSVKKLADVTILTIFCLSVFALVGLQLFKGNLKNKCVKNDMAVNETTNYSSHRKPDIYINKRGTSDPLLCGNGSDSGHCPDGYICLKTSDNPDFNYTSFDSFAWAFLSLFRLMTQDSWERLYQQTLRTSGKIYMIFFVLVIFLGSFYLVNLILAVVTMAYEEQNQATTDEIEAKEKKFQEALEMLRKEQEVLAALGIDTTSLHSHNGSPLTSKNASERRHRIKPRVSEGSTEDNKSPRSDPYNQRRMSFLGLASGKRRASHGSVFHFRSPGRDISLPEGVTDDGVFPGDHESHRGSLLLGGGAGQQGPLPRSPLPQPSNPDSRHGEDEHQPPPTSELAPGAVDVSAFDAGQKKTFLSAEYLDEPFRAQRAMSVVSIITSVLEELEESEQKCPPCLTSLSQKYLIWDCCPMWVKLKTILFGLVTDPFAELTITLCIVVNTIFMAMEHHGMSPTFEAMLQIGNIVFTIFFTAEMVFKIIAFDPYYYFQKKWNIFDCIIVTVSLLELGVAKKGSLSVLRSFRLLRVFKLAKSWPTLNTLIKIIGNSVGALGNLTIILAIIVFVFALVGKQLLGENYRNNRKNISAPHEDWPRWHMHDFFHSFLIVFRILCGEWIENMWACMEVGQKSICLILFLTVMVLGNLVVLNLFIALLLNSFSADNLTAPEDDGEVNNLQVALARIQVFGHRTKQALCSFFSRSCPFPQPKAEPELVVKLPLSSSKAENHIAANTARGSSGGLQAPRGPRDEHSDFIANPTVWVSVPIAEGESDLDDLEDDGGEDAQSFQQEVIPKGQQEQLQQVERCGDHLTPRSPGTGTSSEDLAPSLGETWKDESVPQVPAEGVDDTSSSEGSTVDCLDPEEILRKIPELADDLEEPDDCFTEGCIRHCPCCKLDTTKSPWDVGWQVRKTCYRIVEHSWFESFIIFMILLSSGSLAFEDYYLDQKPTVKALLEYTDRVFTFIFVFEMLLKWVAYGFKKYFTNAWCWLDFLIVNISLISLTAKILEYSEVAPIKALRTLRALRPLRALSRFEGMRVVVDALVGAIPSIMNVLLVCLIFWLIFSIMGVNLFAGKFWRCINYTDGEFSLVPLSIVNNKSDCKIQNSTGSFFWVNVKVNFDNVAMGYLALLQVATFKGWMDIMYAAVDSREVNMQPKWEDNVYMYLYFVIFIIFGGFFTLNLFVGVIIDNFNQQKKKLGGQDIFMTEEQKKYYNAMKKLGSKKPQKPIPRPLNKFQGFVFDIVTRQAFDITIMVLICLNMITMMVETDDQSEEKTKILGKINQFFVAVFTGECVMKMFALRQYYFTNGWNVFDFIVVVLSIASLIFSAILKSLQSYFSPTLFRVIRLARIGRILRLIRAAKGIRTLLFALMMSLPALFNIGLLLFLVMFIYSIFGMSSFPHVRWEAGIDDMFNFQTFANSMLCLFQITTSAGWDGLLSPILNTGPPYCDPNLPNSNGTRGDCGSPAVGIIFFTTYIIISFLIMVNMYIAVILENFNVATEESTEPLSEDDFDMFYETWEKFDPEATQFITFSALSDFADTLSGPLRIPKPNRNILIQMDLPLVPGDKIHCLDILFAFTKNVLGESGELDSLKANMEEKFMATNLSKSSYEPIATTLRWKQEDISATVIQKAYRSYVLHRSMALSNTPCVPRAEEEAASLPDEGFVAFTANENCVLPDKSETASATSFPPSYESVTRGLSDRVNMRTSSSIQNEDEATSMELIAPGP

`CS(=N)(=O)c1cc(NC(=O)c2c(C(F)(F)F)c(C3CC3)nn2CC2C(F)(F)C23CCC3)ccn1` (single isomer, unassigned) [Example 136c, 3-Cyclopropyl-1-((2,2-difluorospiro[2.3]hexan-1-yl)methyl)-N-(2-(S-methylsulfonimidoyl)pyridin-4-yl)-4-(trifluoromethyl)-1H-pyrazole-5-carboxamide]: the half-inhibitory concentration (IC50) was at most 0.1 µM.

Turning to `C[S@](=N)(=O)c1cc(NC(=O)c2c(C(F)(F)F)c(C3CC3)nn2C[C@]2(C)C[C@H](C(F)(F)F)C2)ccn1` (single isomer, unassigned) [Example 86b, 3-cyclopropyl-1-(((trans)-1-methyl-3-(trifluoromethyl)cyclobutyl)methyl)-N-(2-(S-methylsulfonimidoyl)pyridin-4-yl)-4-(trifluoromethyl)-1H-pyrazole-5-carboxamide], the IC50 was at most 0.1 µM.

Turning to `CC1(Cn2nc(C3(F)CC3)c(C(F)(F)F)c2C(=O)Nc2cccc(S(C)(=O)=NC(=O)C3COC3)c2)CC(F)(F)C1` (single isomer, unassigned) [Example 150a, 1-((3,3-Difluoro-1-methylcyclobutyl)methyl)-3-(1-fluorocyclopropyl)-N-(3-(S-methyl-N-(oxetane-3-carbonyl)sulfonimidoyl)phenyl)-4-(trifluoromethyl)-1H-pyrazole-5-carboxamide], the IC50 is at most 0.1 µM.

In the case of `C[C@@]1(Cn2nc(C3CC3)c(C(F)(F)F)c2C(=O)Nc2ccnc([S@@](C)(=N)=O)c2)CC(F)(F)C12CC2` (single isomer, unassigned) [Example 92d, 3-cyclopropyl-1-((6,6-difluoro-4-methylspiro[2.3]hexan-4-yl)methyl)-N-(2-(S-methylsulfonimidoyl)pyridin-4-yl)-4-(trifluoromethyl)-1H-pyrazole-5-carboxamide], the IC50 is at most 0.1 µM.

Take `CS(=N)(=O)c1cc(NC(=O)c2c(C(F)(F)F)c(C3CC3)nn2C[C@H]2CCC(F)(F)C2)ccn1` (single isomer, unassigned) [Example 17b]: the IC50 was at most 0.1 µM.

As for `C[S@@](=N)(=O)c1cc(NC(=O)c2c(C(F)(F)F)c(C3CC3)nn2C[C@@H]2CC23CC3)ccn1` (single isomer, unassigned) [Example 78a, 3-cyclopropyl-N-(2-(S-methylsulfonimidoyl)pyridin-4-yl)-1-(spiro[2.2]pentan-1-ylmethyl)-4-(trifluoromethyl)-1H-pyrazole-5-carboxamide], the IC50 was at most 0.1 µM.

With `CC1(Cn2nc(C3(C(F)F)CC3)c(C(F)(F)F)c2C(=O)Nc2ccnc(S(C)(=N)=O)c2)CC(F)(F)C1` (single isomer, unassigned) [Example 145a, 1-((3,3-Difluoro-1-methylcyclobutyl)methyl)-3-(1-(difluoromethyl)cyclopropyl)-N-(2-(S-methylsulfonimidoyl)pyridin-4-yl)-4-(trifluoromethyl)-1H-pyrazole-5-carboxamide], the IC50 was at most 0.1 µM.

With `CC1(Cn2nc(C34CC(F)(C3)C4)c(C(F)F)c2C(=O)Nc2cccc(S(C)(=N)=O)c2)CC(F)(F)C1` (single isomer, unassigned) [Example 113a, 1-((3,3-Difluoro-1-methylcyclobutyl)methyl)-4-(difluoromethyl)-3-(3-fluorobicyclo[1.1.1]pentan-1-yl)-N-(3-(S-methylsulfonimidoyl)phenyl)-1H-pyrazole-5-carboxamide], the IC50 was at most 0.1 µM.

For the compound `CS(=N)(=O)c1cc(NC(=O)c2c(C(F)(F)F)c(C3CC3)nn2CC2(F)CC3(CCC3)C2)ccn1` (single isomer, unassigned) [Example 21a, 3-cyclopropyl-1-((2-fluorospiro[3.3]heptan-2-yl)methyl)-N-(2-(S-methylsulfonimidoyl)pyridin-4-yl)-4-(trifluoromethyl)-1H-pyrazole-5-carboxamide], the IC50 is at most 0.1 µM.
